Data as given in patent US5750530A, “Pharmaceutical diketopiperazine compounds” (Xenova Limited, priority 1994, dated 1998).
pIC50: −log10 of the molar value. Counter-ions that a name gives are not always drawn. Like-named read-outs stand apart in the source and are kept apart here.

Biological target: PAI-1 (Homo sapiens, UniProt P05121)
Assay: biochemical
Assay type: biochemical
Description: The present compounds have been tested in a PAI functional assay. In this assay, a compound is incubated with PAI-1 prior to addition to the tPA assay system. Inhibition of PAI-1 results in the production of plasmin from plasminogen. In turn, plasmin cleaves the chromogenic substrate S2251 (Kabi Vitrum) producing pNA (p-nitroaniline) which is detected spectrophotometrically at 405 nm (K. Nilsson et al, Fibrinolysis (1987) 1, 163-168).
The present compounds were tested in a PAI chromogenic substrate assay. In the assay (K. Nilsson, Fibrinolysis (1987) 1, 163-168) each compound was incubated with PAI-1 prior to addition to the tPA assay system. […] In turn, the plasmin cleaved the chromogenic substrate S2251 (Kabi-Vitrum) producing pNA (p-nitroaniline) which was detected spectrophotometrically at 405 nm.
The degrees of inhibition observed in the chromogenic substrate assay at various concentrations, or the IC50 values, for each compound are presented in Table 1.

[1] = PAI chromogenic substrate assay

PAI-1, sequence (P05121 24-402): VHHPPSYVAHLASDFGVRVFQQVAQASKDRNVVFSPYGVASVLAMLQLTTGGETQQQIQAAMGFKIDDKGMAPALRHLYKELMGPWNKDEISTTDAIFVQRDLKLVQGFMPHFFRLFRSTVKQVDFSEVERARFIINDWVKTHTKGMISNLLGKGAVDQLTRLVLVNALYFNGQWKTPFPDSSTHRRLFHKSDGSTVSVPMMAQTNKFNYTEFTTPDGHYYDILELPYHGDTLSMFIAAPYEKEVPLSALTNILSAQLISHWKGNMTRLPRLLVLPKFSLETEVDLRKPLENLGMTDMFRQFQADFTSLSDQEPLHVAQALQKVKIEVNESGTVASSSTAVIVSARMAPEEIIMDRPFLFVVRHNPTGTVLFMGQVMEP

Row | % Inhibition (5 μm) | % Inhibition (20 μm) | pIC50 [1] | % Inhibition (100 μm) | pIC50 | Compound
1 | 3% | 21% | – | – | – | CN(C)CCSc1ccc(/C=c2\[nH]c(=O)/c(=C/c3cccc([N+](=O)[O-])c3)[nH]c2=O)cc1 [Compound 5422, (3Z,6Z)-6-(4-(2-Dimethylaminoethylthio)benzylidene)-3-(3-nitrobenzylidene)-2,5-piperazinedione]
2 | 37% | 57% | 5.43 | – | – | CN(C)CCSc1ccc(/C=c2\[nH]c(=O)/c(=C/c3cccc(Br)c3)[nH]c2=O)cc1 [Compound 5425, (3Z,6Z)-3-(3-Bromobenzylidene)-6-(4-(2-dimethylaminoethylthio)benzylidene)-2,5-piperazinedione]
3 | 6% | 35% | 4.77 | – | – | Cc1cccc(/C=c2\[nH]c(=O)/c(=C/c3ccc(SCCN(C)C)cc3)[nH]c2=O)c1 [Compound 5439.HCl, (3Z,6Z)-6-(4-(2-Dimethylaminoethylthio)benzylidene)-3-(3-methylbenzylidene)-2,5-piperazinedione]
4 | 19% | 58% | 4.98 | – | – | COc1ccc(/C=c2\[nH]c(=O)/c(=C/c3ccc(SCCN(C)C)s3)[nH]c2=O)cc1 [Compound 5464, (3Z,6Z)-3-(5-(2-Dimethylaminoethylthio)-2-thienyl)methylene-6-(4-methoxybenzylidene)-2,5-piperazinedione]
5 | 47% | 75% | 5.26 | – | – | CN(C)CCSc1ccc(/C=c2\[nH]c(=O)/c(=C/C3CCCCC3)[nH]c2=O)s1 [Compound 5454, (3Z,6Z)-6-Cyclohexylmethylene-3-(5-(2-dimethylaminoethylthio)-2-thienyl)methylene-2,5-piperazinedione]
6 | 3% | 60% | 4.77 | – | – | COC(=O)c1ccc(/C=c2\[nH]c(=O)/c(=C/c3ccc(SCCN(C)C)cc3)[nH]c2=O)cc1 [Compound 5478.HCl, (3Z,6Z)-3-(4-(2-Dimethylaminoethylthio)benzylidene)-6-(4-methoxycarbonylbenzylidene)-2,5-piperazinedione]
7 | 34% | 83% | 4.91 | – | – | Cc1ccc(/C=c2\[nH]c(=O)/c(=C/c3ccc(SCCN(C)C)s3)[nH]c2=O)cc1 [Compound 5460, (3Z,6Z)-3-(5-(2-Dimethylaminoethylthio)-2-thienyl)methylene-6-(4-methylbenzylidene)-2,5-piperazinedione]
8 | 62% | 75% | 5.32 | – | – | COc1ccc(/C=c2\[nH]c(=O)/c(=C/c3ccc(SCCN(C)C)cc3)[nH]c2=O)cc1 [Compound 5479.HCl, (3Z,6Z)-3-(4-(2-Dimethylaminoethylthio)benzylidene)-6-(4-methoxybenzylidene)-2,5-piperazinedione]
9 | 4% | 49% | – | – | – | CN(C)CCSc1ccc(/C=c2\[nH]c(=O)/c(=C/c3cccc(OCc4ccccc4)c3)[nH]c2=O)cc1 [Compound 5486.HCl, (3Z,6Z)-3-(3-Benzyloxybenzylidene)-6-(4-(2-dimethylaminoethylthio)benzylidene)-2,5-piperazinedione]
10 | 9% | 55% | 4.90 | – | – | CN(C)CCSc1ccc(/C=c2\[nH]c(=O)/c(=C/c3ccc(Br)cc3)[nH]c2=O)s1 [Compound 5489.HCl, (3Z,6Z)-6-(4-Bromobenzylidene)-3-(5-(2-dimethylaminoethylthio)-2-thienyl)methylene-2,5-piperazinedione]
11 | 1% | 0% | – | – | – | CN(C)CCSc1ccc(/C=c2\[nH]c(=O)/c(=C/c3cccnc3)[nH]c2=O)s1 [Compound 5470, (3Z,6Z)-6-(5-(2-Dimethylaminoethylthio)-2-thienyl)methylene-3-(3-pyridylmethylene)-2,5-piperazinedione]
12 | 0% | 0% | – | – | – | CC(C)/C=c1\[nH]c(=O)/c(=C/c2ccc(SCCN(C)C)s2)[nH]c1=O [Compound 5448, (3Z,6Z)-3-(5-(2-Dimethylaminoethylthio)-2-thienyl)methylene-6-(2-methylpropylidene)-2,5-piperazinedione]
13 | 26% | 52% | 4.70 | – | – | CN(C)CCSc1sc(/C=c2\[nH]c(=O)/c(=C/c3ccccc3)[nH]c2=O)cc1[N+](=O)[O-] [Compound 5403, (3Z,6Z)-6-Benzylidene-3-(5-(2-dimethylaminoethylthio)-4-nitro-2-thienyl)methylene-2,5-piperazinedione]
14 | 5% | 28% | – | – | – | CN(C)CCSc1ccc(/C=c2\[nH]c(=O)/c(=C/c3cccc([N+](=O)[O-])c3)[nH]c2=O)cc1 [Compound 5422.HCl, (3Z,6Z)-6-(4-(2-Dimethylaminoethylthio)benzylidene)-3-(3-nitrobenzylidene)-2,5-piperazinedione]

More lines, now with the values behind:

Row | Compound | % Inhibition (5 μm) | % Inhibition (20 μm) | pIC50 [1] | % Inhibition (100 μm) | pIC50
15 | CN(C)CCSc1ccc(/C=c2\[nH]c(=O)/c(=C/c3cccc(C(F)(F)F)c3)[nH]c2=O)cc1 [Compound 5423.HCl, (3Z,6Z)-6-(4-(2-Dimethylaminoethylthio)benzylidene)-3-(3-trifluoromethylbenzylidene)-2,5-piperazinedione] | 2% | 35% | 4.70 | – | –
16 | CN(C)CCSc1ccc(/C=c2\[nH]c(=O)/c(=C/c3ccccc3)[nH]c2=O)cc1[N+](=O)[O-] [Compound 5400, (3Z,6Z)-6-Benzylidene-3-(4-(2-dimethylaminoethylthio)-3-nitrobenzylidene)-2,5-piperazinedione] | 61% | 60% | 5.35 | – | –
17 | CC(=O)Nc1ccc(/C=c2\[nH]c(=O)/c(=C/c3ccc(SCCN(C)C)s3)[nH]c2=O)cc1 [Compound 5300.HCl, (3Z,6Z)-6-(4-Acetamidobenzylidene)-3-(5-(2-dimethylaminoethylthio)-2-thienyl)methylene-2,5-piperazinedione] | 10% | 41% | – | 26% | –
18 | CN(C)CCSc1ccc(/C=c2\[nH]c(=O)/c(=C/c3ccc4ccccc4n3)[nH]c2=O)s1 [Compound 5308.HCl, (3Z,6Z)-6-(5-(2-Dimethylaminoethylthio)-2-thienyl)methylene-3-(2-quinolylmethylene)-2,5-piperazinedione] | – | 93% | 5.35 | 93% | –
19 | COc1cccc(/C=c2\[nH]c(=O)/c(=C/c3ccc(SCCN(C)C)s3)[nH]c2=O)c1 [Compound 5314.HCl, (3Z,6Z)-3-(5-(2-Dimethylaminoethylthio)-2-thienyl)methylene-6-(3-methoxybenzylidene)-2,5-piperazinedione] | – | – | 5.02 | – | –
20 | CN(C)CCSc1ccc(/C=c2\[nH]c(=O)/c(=C/c3ccc4c(c3)CCO4)[nH]c2=O)s1 [Compound 5311, (3Z,6Z)-3-(2,3-dihydro-5-benzofuranyl)methylene-6-(5-(2-dimethylaminoethylthio)-2-thienyl)methylene-2,5-piperazinedione] | – | – | – | – | 4.82
21 | CN(C)CC[S+]([O-])c1ccc(/C=c2\[nH]c(=O)/c(=C/c3ccccc3)[nH]c2=O)cc1 (stereo not drawn) [Compound 5141.HCl, (3Z,6Z)-6-Benzylidene-3-(4-(2-dimethylaminoethylsulphinyl)benzylidene)-2,5-piperazinedione] | 0% | 6% | – | 34% | –
22 | CN(C)CCSc1ccc(/C=c2\[nH]c(=O)/c(=C/c3ccc(N(C)C)cc3)[nH]c2=O)s1 [Compound 5280, (3Z,6Z)-6-(4-Dimethylaminobenzylidene)-3-(5-(2-dimethylaminoethylthio)-2-thienyl)methylene-2,5-piperazinedione] | – | 82% | 4.70 | 99% | –
23 | CN(C)CCSc1ccc(/C=c2\[nH]c(=O)/c(=C/c3ccc(C(F)(F)F)cc3)[nH]c2=O)cc1 [Compound 5294, (3Z,6Z)-3-(4-(2-Dimethylaminoethylthio)benzylidene)-6-(4-trifluoromethylbenzylidene)-2,5-piperazinedione] | – | – | 5.60 | – | –
24 | COc1cccc(/C=c2\[nH]c(=O)/c(=C/c3ccc(SCCN(C)C)cc3)[nH]c2=O)c1 [Compound 5438.HCl, (3Z,6Z)-6-(4-(2-Dimethylaminoethylthio)benzylidene)-3-(3-methoxybenzylidene)-2,5-piperazinedione] | 3% | – | – | – | –
25 | CN(C)CCSc1ccc(/C=c2\[nH]c(=O)/c(=C/c3ccoc3)[nH]c2=O)cc1 [Compound 5129.HCl, (3Z,6Z)-6-(4-(2-Dimethylaminoethylthio)benzylidene)-3-(3-furylmethylene)-2,5-piperazinedione] | 51% | 68% | 5.35 | 50% | –
26 | CN(C)CCSc1ccc(/C=c2\[nH]c(=O)/c(=C/c3ccc4ccccc4c3)[nH]c2=O)s1 [Compound 5286, (3Z,6Z)-3-(5-(2-Dimethylaminoethylthio)-2-thienyl)methylene-6-(2-naphthyl)methylene-2,5-piperazinedione] | – | 87% | 5.10 | 98% | –
27 | CN(C)CCSc1ccc(/C=c2\[nH]c(=O)/c(=C/c3ccc4ccccc4c3)[nH]c2=O)s1 [Compound 5286.HCl, (3Z,6Z)-3-(5-(2-Dimethylaminoethylthio)-2-thienyl)methylene-6-(2-naphthyl)methylene-2,5-piperazinedione] | – | 77% | 4.85 | 98% | –
